Test results as given in patent US12157882B2, “Lactobacillus plantarum strain ATG-K2, ATG-K6 or ATG-K8, and composition for preventing or treating vaginitis comprising same” (ATOGEN CO., LTD, priority 2018, dated 2024).

Tests used:
[1] = ABTS radical-scavenging experiment with lactic-acid bacteria lysate; type: biochemical; conditions: for ABTS radical-scavenging activity: lactic-acid bacteria lysate, dark reaction 10 min, 734 nm; for antioxidant activity, ranking among strains: lysate, at 10 mg and above
Method: In order to evaluate the antioxidant activity of each of the lactic-acid bacteria strains, a radical-scavenging experiment was conducted using 2,2′-azino-bis(3-ethylbenzthiazoline-6-sulfonic acid) (ABTS, Sigma-Aldrich, Germany). Briefly, lactic-acid bacteria were cultured for about 24 hr, allowed to react with lysozyme (Sigma-Aldrich, Germany) for 2 hr at 37° C., and lysed through sonication to obtain each lactic-acid bacteria lysate. The solid content thereof was measured using a water content analyzer, and a stock solution was adjusted to a concentration of 50 mg/ml. To prepare ABTS, 14 mM ABTS stock solution and 4.9 mM potassium persulfate were mixed at a volume ratio of 1:1, followed by dark reaction overnight so that the resulting mixture turned blue-green. A working solution obtained by diluting the corresponding solution until an absorbance OD-734 reached about 0.7 was added with 10% of each lactic-acid bacteria lysate sample, followed by dark reaction for 10 min, after which the absorbance at a wavelength of 734 nm was measured, and each measured value was substituted into the following equation. ABTS radical-scavenging activity (%)={1−(ODsample/ODcontrol)}×100

[2] = tested on: Candida albicans KCTC7678 (CA); assay: Growth inhibition by cell-free culture supernatant (CFCS); type: cell-based; conditions: CFCS at 1× concentration, culture for 24 hr, OD600
Method: (§1) In order to measure the activity of the lactic-acid bacteria culture solution on inhibiting the growth of vaginitis pathogens, a 10-fold-concentrated cell-free culture supernatant (CFCS) was prepared. The culture solution of each of K2, K6 and K8 lactic-acid bacteria was centrifuged at 4,000 rpm for 25 min, thereby separating the cells of the lactic-acid bacteria and the culture supernatant from each other. The culture supernatant was filtered using a 0.2 μm pore syringe filter (Sartorius, Germany). The filtered culture supernatant was lyophilized and suspended in 1×PBS to afford a solution concentrated 10-fold compared to the volume of the initial culture solution. CA was inoculated at a concentration of 1×10^5 CFU/ml and GV was inoculated at a concentration of 1×10^6 CFU/ml under individual culture conditions. The CFCS of lactic-acid bacteria was added in a volume corresponding to 0.1 times the final volume to the vaginitis-pathogen-inoculated solution so as to reach 1×, and the test group not added with CFCS was used as a control. The mixed composition was cultured for 24 hr for CA and 48 hr for GV under individual vaginitis-pathogen culture conditions, and the absorbance was measured at a wavelength of OD600. Based on the measured absorbance, growth inhibition was determined using the following cytotoxicity calculation equation. In this equation, ODcontrol represents the absorbance of the control, and ODcfcs represents the absorbance of the CFCS-added group. Growth inhibition (%)=(ODcontrol−ODcfcs)/ODcontrol×100

[3] = tested on: Gardnerella vaginalis KCTC5096 (GV); assay: as above; type: cell-based; conditions: CFCS at 1× concentration, culture for 48 hr, OD600
Method: as §1

[4] = Bile salt hydrolase (BSH) activity on MRS agar with 0.5% sodium taurocholic acid; conditions: MRS agar with 0.5% (w/v) TDCA, anaerobic, 37° C., about 72 hr
Method: In order to confirm the presence or absence of bile salt hydrolase (BSH) activity as the function of each of the lactic-acid bacteria, an experiment was performed in accordance with the method described in Dashkevicz and Feighner (1989). Briefly, an agar medium was prepared by adding 0.5% (w/v) sodium taurocholic acid (TDCA, Sigma-Aldrich, Germany) to MRS.

[5] = tested on: Staphylococcus aureus KCTC1621 (SA); assay: Disc test, clear zone; type: cell-based; conditions: 35 μl culture solution on 8 mm paper disc, disc diameter subtracted; average of four tests
Method: (§2) In order to confirm the antimicrobial functionality of K2, K6 and K8, the antimicrobial activity of lactic-acid bacteria K2, K6 and K8 against a total of seven types of infectious or opportunistic bacteria, including four types of gram-positive SA, LM, SM, and SS and three types of gram-negative EC, PA, and CS, was determined by measuring clear zones through a disc test. Seven types of bacteria cultured overnight in a BHI plate medium were each suspended in 1× phosphate-buffered saline (PBS) until OD600 of about 0.8 was obtained. Each suspension was absorbed with a sterile cotton swab, spread over an agar medium for an antimicrobial activity test for lactic-acid bacteria, in which BHI and MRS were mixed at a ratio of 1:1, and dried for about 3 min. Each 8 mm paper disc (Advantec, Japan) was attached to the dried test agar medium, and 35 μl of each of K2, K6, and K8 solutions cultured in an MRS broth for about 18 to 20 hr was inoculated to the paper disc, dried for about 3 min, cultured at 37° C. and observed. The size of the clear zone formed after culture was determined in a manner in which the diameter thereof was measured and was calculated after subtracting 8 mm, which is the diameter of the paper disc. The unit for the diameter of the clear zone, which is each numerical value in Table 4, is mm, and each abbreviation is as follows: Staphylococcus aureus KCTC1621 (SA), Listeria monocytogenes KCTC3569 (LM), Streptococcus mutans KCTC3065 (SM), Streptococcus salivarius ATG-P1 (SS), Escherichia coli KCTC1682 (EC), Pseudomonas aeruginosa KCTC2004 (PA), Cronobacter sakazakii KCTC2949 (CS).

[6] = tested on: Cronobacter sakazakii KCTC2949 (CS); assay: Disc test, clear zone; type: cell-based; conditions: 35 μl culture solution on 8 mm paper disc, disc diameter subtracted; average of four tests
Method: as §2

[7] = tested on: Pseudomonas aeruginosa KCTC2004 (PA); assay: Disc test, clear zone; type: cell-based; conditions: 35 μl culture solution on 8 mm paper disc, disc diameter subtracted; average of four tests
Method: as §2

[8] = tested on: TNF-α in mouse macrophage cell line RAW264.7; assay: TNF-α ELISA, RAW264.7 cells treated with lactic-acid bacteria lysate; type: cell-based; conditions: lysate 100 μg/ml and 500 μg/ml, 24 hr
Method: In order to measure the immunological effects of K2, K6 and K8 lactic-acid bacteria, a cytokine quantification experiment using cells was performed. The cells that were used were a mouse macrophage cell line RAW264.7, and the medium used for each cell experiment was a Gibco® Dulbecco's Modified Eagle Medium (DMEM, Gibco, USA) supplemented with 10% fetal bovine serum (Gibco, USA) and 1% penicillin/streptomycin cocktail (Sigma-Aldrich, Germany). RAW264.7 cells cultured at about 80-90% confluency before material treatment were recovered and seeded in an amount of 1×10^6 cells per well of a 24-well plate. After seeding, culture was carried out in an environment of 37° C. and 5% CO2 for 24 hr in order to realize attachment to the 24-well plate and stabilization thereof. Each well was treated with the lactic-acid bacteria lysate at concentrations of 100 μg/ml and 500 μg/ml, and 1 μg/ml of lipopolysaccharide (LPS, Sigma-Aldrich, Germany) was used as a positive control, and an experimental group not treated with any material was used as a negative control. The cells were cultured at 37° C. and 5% CO2 for 24 hr after material treatment, and the cell culture solution was recovered, followed by enzyme-linked immunosorbent assay (ELISA) for IL-6 and TNF-α. Measurement was performed for IL-6 using a Mouse IL-6 Quantikine ELISA Kit (R&D systems, USA) and for TNF-α using a Mouse TNF-alpha Quantikine ELISA Kit (R&D systems, USA).

Row | Substance | ABTS radical-scavenging activity [1] | antioxidant activity, ranking among strains [1] | growth inhibition of CA [2] [%] | growth inhibition of GV [3] [%] | bile salt hydrolase (BSH) activity [4] | diameter of the clear zone SA [5] [mm] | diameter of the clear zone CS [6] [mm] | diameter of the clear zone PA [7] [mm] | TNF-α production compared to the control [8]
1 | Lactobacillus plantarum ATG-K8 [Lb. plantarum ATG-K8] | exhibited radical-scavenging activity | next-greatest antioxidant activity | 81.34 | 44.60 | exhibited BSH activity | 4.25 ± 0.13 | 5.88 ± 0.11 | 3.88 ± 0.11 | induced
2 | Lactobacillus plantarum ATG-K6 [Lb. plantarum ATG-K6] | exhibited radical-scavenging activity | greatest effect | 82.11 | 28.25 | exhibited BSH activity | 4.88 ± 0.21 | 6.13 ± 0.11 | 4.00 ± 0.18 | induced
3 | Lactobacillus plantarum ATG-K2 [Lb. plantarum ATG-K2] | exhibited radical-scavenging activity | – | 87.05 | 37.49 | exhibited BSH activity | 5.00 ± 0.18 | 6.50 ± 0.18 | 3.75 ± 0.13 | induced
